# Assay results as given in patent publication US9822179B2, “Recombinant TNF ligand family member polypeptides with antibody binding domain and uses therefor” (UNIVERSITAT STUTTGART, priority 2011, dated 2017).
# Where a SMILES comes first, the peptide text is derived from it. The star is where a group is joined. Cbz = O=C(OCc1ccccc1)*; CH2F = FC*
# B1: SEQ ID NO: 104: single chain TRAIL, three copies of TRAIL 95-281 linked by (GGGS)2 linkers, N-terminal FLAG tag, no component B (protein)
# chain: TSEETISTVQEKQQNISPLVRERGPQRVAAHITGTRGRSNTLSSPNSKNEKALGRKINSWESSRSGHSFLSNLHLRNGELVIHEKGFYYIYSQTYFRFQEEIKENTKNDKQMVQYIYKYTSYPDPILLMKSARNSCWSKDAEYGLYSIYQGGIFELKENDRIFVSVTNEHLIDMDHEASFFGAFLVGGGGSGGGSTSEETISTVQEKQQNISPLVRERGPQRVAAHITGTRGRSNTLSSPNSKNEKALGRKINSWESSRSGHSFLSNLHLRNGELVIHEKGFYYIYSQTYFRFQEEIKENTKNDKQMVQYIYKYTSYPDPILLMKSARNSCWSKDAEYGLYSIYQGGIFELKENDRIFVSVTNEHLIDMDHEASFFGAFLVGGGGSGGGSTSEETISTVQEKQQNISPLVRERGPQRVAAHITGTRGRSNTLSSPNSKNEKALGRKINSWESSRSGHSFLSNLHLRNGELVIHEKGFYYIYSQTYFRFQEEIKENTKNDKQMVQYIYKYTSYPDPILLMKSARNSCWSKDAEYGLYSIYQGGIFELKENDRIFVSVTNEHLIDMDHEASFFGAFLVG
# modifications: scTRAIL fusion protein
# notes: single chain TRAIL, three copies of TRAIL 95-281 linked by (GGGS)2 linkers, N-terminal FLAG tag, no component B
# B2: KillerTRAIL: commercially available highly active TRAIL preparation (Enzo Lifesciences / Axxora) (protein, UniProt P50591 39-281, looked up)
# extracellular domain: TNELKQMQDKYSKSGIACFLKEDDSYWDPNDEESMNSPCWQVKWQLRQLVRKMILRTSEETISTVQEKQQNISPLVRERGPQRVAAHITGTRGRSNTLSSPNSKNEKALGRKINSWESSRSGHSFLSNLHLRNGELVIHEKGFYYIYSQTYFRFQEEIKENTKNDKQMVQYIYKYTSYPDPILLMKSARNSCWSKDAEYGLYSIYQGGIFELKENDRIFVSVTNEHLIDMDHEASFFGAFLVG
# modifications: extracellular domain
# Assays:
# Colo205 cells = assay: Caspase dependence of cell death in Colo205 cells, MTT; assay type: cell-based; conditions: 25 ng/ml bortezomib, caspase inhibitors 20 μM, 16 h
# Procedure: (§1) After 16 h, cell viability was determined using MTT staining (Colo 205) or crystal violet staining (Huh-7) and data were normalized using bortezomib-treated cells as control (mean SEM, n=3). (B) 1×10^4 Colo205 cells per well were grown in 96-well plates using medium with 0.1% FCS. […] (C) 1×10^4 Huh-7 cells per well were grown in 96-well plates and treated with 20 ng/ml bortezomib or with a combination of bortezomib and 10 μM zVADfmk.
# [1] = system: EGFR+ Huh-7 hepatocellular carcinoma cells; assay: EGFR-directed induction of cell death in Huh-7 cells, serial dilutions of protein, crystal violet; assay type: cell-based; conditions: 250 ng/ml bortezomib, caspase inhibitors 10 μM, 16 h
# Procedure: as §1
# After 16 h, cell viability was determined using crystal violet staining.
# (§2) As a positive control, cells were killed with 0.25% Triton X-100. Cell death assays with Huh-7 and HepG2 cells were performed in the absence (FIG. 6, Jurkat cells) or presence of Bortezomib (FIG. 7, Huh-7: 250 ng/ml, FIG. 6, HepG2: 500 ng/ml, FIG. 18, Huh-7: 250 ng/ml), Selleck Chemicals, Houston, Tex.). Bortezomib was added 30 min prior incubation with the proapoptotic ligands to sensitize cells for the induction of cell death (FIGS. 6, 7). Alternatively, cells were preincubated for 30 min with the indicated concentrations of TRAIL fusion proteins followed by addition of serial dilutions of Bortezomib (FIG. 8). […] After 16 h incubation, cell viability was determined either by crystal violet staining (Huh-7, HepG2) or the MTT method (Jurkat) (Wuest et al., 2002). In the latter case a lysis buffer consisting of 15% SDS in DMF/H2O (1:1), pH 4.5 (with […]) acetic acid) was used.
# Colo205 xenograft tumor = Colo205 xenograft tumor model
# Procedure: Arrows, protein application; asterisks, bortezomib application; symbols, mean of tumor volumes 95% confidence interval (CI), n=12 tumors/treatment group.
# 8-week-old female NMRI nu/nu mice (Janvier) were injected s.c. with 3×10^6 Colo205 cells in 100 μl PBS at left and right dorsal sides. Treatment started 6 days after tumor cell inoculation when tumors reached about 100 mm^3. […] On day 1, 3, 5 and 7 of treatment, mice received additionally 5 μg bortezomib in 100 μl PBS i.p. three hours before protein injection. The control groups received 100 μl PBS or 5 μg bortezomib at the same time intervals. […] The Tukey's test was applied for statistics.
# [2] = system: Huh-7 hepatocellular carcinoma cells; assay: Cell death in Huh-7 cells, constant protein concentration, serial dilutions of Bortezomib; assay type: cell-based; conditions: protein concentration of 1 nM and above
# Procedure: Results from three independent experiments are shown (mean±S.E.M.).
# as §2
# Jurkat cells = assay: Target-independent induction of cell death, Jurkat, MTT assay; assay type: cell-based; conditions: not sensitized; SEQ ID NO: 102 compared to KillerTRAIL
# Procedure: (§3) Cell viability was determined using crystal violet staining. Results from four independent experiments are shown (mean±S.E.M.). (B) Jurkat cells (1×10^5/well) were used for a similar experiment as described in (A). Jurkat cells were not sensitized. Results from three independent experiments are shown (mean±S.E.M.). Viability of Jurkat cells was determined using the MTT assay.
# as §2
# [3] = system: EGFR low/negative HepG2 cells; assay: Target-independent induction of cell death, HepG2, crystal violet; assay type: cell-based; conditions: comparator named in value
# Procedure: as §3, §2
# [4] = 8 daily i.p. injections of 0.45 nmol + bortezomib every second day
Molecule,block of TRAIL fusion protein-induced cell death by inhibitor (Colo205 cells),block of TRAIL fusion protein-induced cell death by inhibitor [1],also measured
COC(=O)CC[C@H](NC(=O)[C@H](CC(=O)OC)NC(=O)OCc1ccccc1)C(=O)N[C@H](C(=O)N[C@@H](CC(=O)OC)C(=O)CF)C(C)C [zDEVDfmk],nearly complete block of cell death,nearly complete block of cell death,
CN1C(=O)C(Cc2c[nH]c3ccccc23)NC1=S (stereo not drawn) [necrostatin-1],failure of necrostatin-1 to prevent or reduce cell death,failure of necrostatin-1 to prevent or reduce cell death,
CC(C)C[C@H](NC(=O)[C@H](Cc1ccccc1)NC(=O)c1cnccn1)B(O)O [Bortezomib],,,"effect on tumor growth (Colo205 xenograft tumor; bortezomib by itself, 5 μg i.p. on day 1, 3, 5 and 7): did not interfere with progressive tumor growth"
COC(=O)C[C@H](NC(=O)[C@H](C)NC(=O)[C@@H](NC(=O)OCc1ccccc1)C(C)C)C(=O)CF [zVADfmk] (Cbz-Val-Ala-Asp(OMe)-CH2F),nearly complete block of cell death,nearly complete block of cell death,
B1,,,induction of apoptosis when sensitized with Bortezomib [2]: nearly equally efficient in induction of complete apoptosis; effect on tumor growth (Colo205 xenograft tumor; [4]): delayed tumor growth; regression of tumors (Colo205 xenograft tumor; [4]): did not induce regression of tumors; apoptosis-inducing activity on Jurkat cells (Jurkat cells): no reactivity
B2,,,"bioactivity on target negative cells, comparison in words [3]: comparable with the activity of SEQ ID NO: 96"
